Reference: patent US6555546B2, “Use of 5HT3 antagonists for promoting intestinal lavage” (Janssen Pharmaceutics, N.V., priority 1997, dated 2003)
“And” between values parts separate entries of the source, which are not always exact repeats. Identical values can stand only once. Like-named read-outs stand apart in the source and are kept apart here.

Assays:
Beagle dogs [1] = experiment: MgSO4 induced intestinal lavage in dogs; format: in vivo, dog; conditions: Canis lupus familiaris; po, 1 hour before oral MgSO4 (200 ml); liquid stools within 4 hours; read-out: MgSO4 induced intestinal lavage ED50 (95% c.l.)
Procedure: (§1) Beagle dogs of both sexes and varying in body weight were used. During the experiments, the dogs were individually housed in cages. They were uniquely identified by an ear tattoo number (received at the time of weaning). The animals were fasted overnight but were given free access to fresh tap water via automatic drinking nipples in the back of the cage.
Beagle dogs (of both sexes and varying in body weight, 16 hours deprived from food) were orally pretreated with the test compound (0.5 ml/kg) and challenged 1 hour later with an oral administration of magnesium sulphate (MgSO4.7H2O, 64 g/l, 0.26 M; 200 ml). The onset of MgSO4-induced intestinal lavage was assessed over a period of 4 hours after challenge. Liquid stools within 4 hours occured almost never in control animals treated with distilled water (3.0% false positives; n>100) and were considered to reflect significant acceleration of the MgSO4-induced intestinal lavage. Doses in the active dose range were given to five animals each, tested in separate experimental sessions including solvent-treated control animals.

5HT3 receptor = molecular target: T1, 5HT3 receptor (Mus musculus, UniProt P23979); experiment: In vitro 5HT3 receptor binding with [3H]GR 65630
T1 construct: Cells were homogenized in tris.HCl buffer; endogenous in cells; host or cells: NxG 108CC15 (NG108-15) cell membranes
T1 sequence (P23979 24-489): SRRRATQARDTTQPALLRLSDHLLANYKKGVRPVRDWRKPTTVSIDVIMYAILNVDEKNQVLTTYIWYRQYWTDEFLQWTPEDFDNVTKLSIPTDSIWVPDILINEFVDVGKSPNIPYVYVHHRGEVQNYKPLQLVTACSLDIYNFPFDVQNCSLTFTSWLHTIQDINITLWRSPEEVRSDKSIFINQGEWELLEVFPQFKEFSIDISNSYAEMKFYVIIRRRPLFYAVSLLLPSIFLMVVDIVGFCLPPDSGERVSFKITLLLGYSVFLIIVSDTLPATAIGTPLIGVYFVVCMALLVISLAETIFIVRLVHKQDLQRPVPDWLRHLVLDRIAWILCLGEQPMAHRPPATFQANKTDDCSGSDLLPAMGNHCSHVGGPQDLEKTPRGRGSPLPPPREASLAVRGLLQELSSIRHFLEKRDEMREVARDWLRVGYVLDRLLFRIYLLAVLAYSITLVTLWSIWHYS
Procedure: The incubation was run for 60 minutes at 37° C. Labelled membranes were collected and […] by rapid filtration under suction over […] filters (presoaked in 0.1% polyethyleneimine for at least 1 hour) using a 40-well filtration manifold. […] All experiments were repeated independently at least two times. Radioactivity on the filters was counted in a Packard Tri-carb 1600CA liquid scintillation analyzer. Counting data were collected directly in a Macintosh SE personal computer and further transferred to a Macintosh II personal computer. Counting data from assays in the presence of a compound were automatically expressed as percent of total binding measured in the absence of test compound. Inhibition curves plotting percent of total binding versus the log concentrations of the test compound were automatically generated.

Beagle dogs [2] = experiment: KleanPrep-induced intestinal lavage in dogs; format: in vivo, dog; conditions: for ED50: Canis lupus familiaris, oral pretreatment one hour earlier
Procedure: as §1
The dogs were orally pretreated with test compound or distilled water (0.5 ml/kg) and 1 hour later challenged by gavage with KleanPrep® solution. Dependent on the type of experiment, the KleanPrep® solution was administered more than once at 15 minutes intervals. The standard administration volume was 200 ml. The occurrence of liquid stools at 1, 2, 3, 4, 5 and 6 hours after the first administration of KleanPrep® was noted. The KleanPrep® solution consisted of polyethyleneglycol 3350 (59 g/l), sodium sulfate (5.685 g/l), sodium hydrogencarbonate (1.685 g/l), sodium chloride (1.465 g/l), potassium chloride (0.7425 g/l), aspartate (0.0494 g/l) and vanille (0.3291 g/l).
Each dose of the test compounds was given to 5 animals.

[3] = fourth experiment: 2×200 ml KleanPrep, relative to ED50 for within 4 hours

SMILES	ED50 (Beagle dogs [1]) [mg/kg]	Ki (5HT3 receptor) [nM]	other results
Cc1nccn1CC1CCc2c(c3ccccc3n2C)C1=O (racemic) [(±)-Ondansetron]	0.097		
COc1cc(N)c(Cl)cc1C(=O)NC1CCN2CCCC1C2 (racemic) [(±)-Renzapride]	0.074	10	
COc1cc(N)c(Cl)cc1C(=O)NC1CN2CCC1CC2 (racemic) [(±)-Zacopride]	0.023		
CO[C@@H]1CN(CCCNc2nccc(=O)[nH]2)CC[C@@H]1NC(=O)c1cc(Cl)c(N)c2c1OC(C)(C)C2 (relative stereo) [Compound A, (−)-cis-4-amino-5-chloro-2,3-dihydro-N-[1-[3-[(3,4-dihydro-4-oxo-2-pyrimidinyl)amino]propyl]-3-methoxy-4-piperidinyl]-2,2-dimethyl-7-benzofurancarboxamide]	0.0027		Ki (5HT3 receptor; N×G 108CC15 cell membranes, [3H]GR 65630 2 nM, 60 min 37° C, logarithmic mean and 95% confidence limits, read-out: 5HT3 receptor Ki (95% c.l.)): 0.58 nM; ED50 (Beagle dogs [2]; read-out: ED50 liquid stools within 1 hour, fourth experiment: 2×200 ml KleanPrep): 0.085 mg/kg; ED50 (Beagle dogs [2]; fourth experiment: 2×200 ml KleanPrep, read-out: ED50 liquid stools within 4 hours): 0.0036 mg/kg; dose increment for liquid stools within 1 hour (Beagle dogs [2]; [3]): 24 times; dose increment for liquid stools within 2 hours (Beagle dogs [2]; [3]): 3 times; dose increment for liquid stools within 3 hours (Beagle dogs [2]; [3]): 1.1 times; dogs displaying liquid stools within 2 hours after KleanPrep administration (Beagle dogs [2]; second experiment: single 200 ml KleanPrep, 0.16 mg/kg p.o. one hour earlier): three out of five; dogs displaying first liquid stool within 2 hours after first administration of KleanPrep (Beagle dogs [2]; third experiment: 4×200 ml KleanPrep at 15 minute intervals, 0.16 mg/kg p.o. one hour earlier): all five; time of first liquid stool after first administration of KleanPrep (individual dogs) (Beagle dogs [2]; third experiment: 4×200 ml KleanPrep at 15 minute intervals, 0.16 mg/kg p.o. one hour earlier, 0.16 mg/kg): 38 min and 39 min and 42 min and 52 min and 77 min
CN1C2CCCC1CC(NC(=O)c1nn(C)c3ccccc13)C2 (stereo not drawn) [(endo)-Granisetron]	0.014		
CN1[C@@H]2CC[C@H]1C[C@@H](OC(=O)c1c[nH]c3ccccc13)C2 [(endo)-Tropisetron]	0.074		
Cn1cc(C(=O)[C@@H]2CCc3nc[nH]c3C2)c2ccccc21 [(−)-YM-060]	0.0012	0.14	
CC(C)n1c(=O)n(C(=O)N[C@H]2C[C@H]3CC[C@@H](C2)N3C)c2ccccc21 [BIMU-8]	0.016	0.29	
CN1[C@@H]2CC[C@H]1C[C@@H](OC(=O)c1cc(Cl)cc(Cl)c1)C2 [Bemesetron]	0.77	8	
CCn1c(=O)n(C(=O)OC2C[C@H]3CC[C@@H](C2)N3C)c2ccccc21 (stereo partly drawn) [DAU-6236]	0.049	6.6	
